Assay results: the supplement of paper PMC10307832

Experiments:
Assay in all cases: relative viability (nuclei count vs DMSO), 5 days (fraction); higher = more cells survive
Quizartinib + Vorinostat = compound: CC(C)(C)c1cc(NC(=O)Nc2ccc(-c3cn4c(n3)sc3cc(OCCN5CCOCC5)ccc34)cc2)no1 [Quizartinib] + O=C(CCCCCCC(=O)Nc1ccccc1)NO [Vorinostat] (partner 1 µM)
How it was run: (§1)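 For relative viability, nuclei counts in treated wells were divided by those in vehicle wells. Lung cancer cell lines had been pin-tool dosed in 1536-well plates the day after seeding and cultured for 5 days, then fixed and stained in one step (final 0.05% Triton X-100, 1% formaldehyde, 1 ug/ml Hoechst) and imaged at 4×. Doses were one drug alone or a fixed anchor-drug dose plus five library-drug doses (not always all listed) in √10 steps, and values are duplicate-plate medians.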

YM155 + Alpelisib = compound: COCC[n+]1c2c(n(Cc3cnccn3)c1C)C(=O)c1ccccc1C2=O [YM155] + Cc1nc(NC(=O)N2CCC[C@H]2C(N)=O)sc1-c1ccnc(C(C)(C)C(F)(F)F)c1 [Alpelisib] (partner 2 µM)
How it was run: as §1

Quizartinib + Decitabine = compound: CC(C)(C)c1cc(NC(=O)Nc2ccc(-c3cn4c(n3)sc3cc(OCCN5CCOCC5)ccc34)cc2)no1 [Quizartinib] + Nc1ncn([C@H]2C[C@H](O)[C@@H](CO)O2)c(=O)n1 [Decitabine] (partner 2 µM)
How it was run: as §1

YM155 + Lapatinib = compound: COCC[n+]1c2c(n(Cc3cnccn3)c1C)C(=O)c1ccccc1C2=O [YM155] + CS(=O)(=O)CCNCc1ccc(-c2ccc3ncnc(Nc4ccc(OCc5cccc(F)c5)c(Cl)c4)c3c2)o1 [Lapatinib] (partner 2 µM)
How it was run: as §1

Row | Cell Line | relative viability (Quizartinib + Vorinostat; first compound 0.003162 µM) | relative viability (Quizartinib + Vorinostat; first compound 0.01 µM) | relative viability (Quizartinib + Vorinostat; first compound 0.1 µM) | relative viability (YM155 + Alpelisib; first compound 0.002 µM) | relative viability (YM155 + Alpelisib; first compound 0.006325 µM) | relative viability (YM155 + Alpelisib; first compound 0.02 µM) | relative viability (YM155 + Alpelisib; first compound 0.06325 µM) | relative viability (Quizartinib + Decitabine; first compound 0.003162 µM) | relative viability (Quizartinib + Decitabine; first compound 0.01 µM) | relative viability (Quizartinib + Decitabine; first compound 0.1 µM) | relative viability (YM155 + Lapatinib; first compound 0.002 µM) | relative viability (YM155 + Lapatinib; first compound 0.006325 µM) | relative viability (YM155 + Lapatinib; first compound 0.02 µM) | relative viability (YM155 + Lapatinib; first compound 0.06325 µM) | relative viability (Quizartinib + Vorinostat; first compound 0.03162 µM) | relative viability (Quizartinib + Decitabine; first compound 0.03162 µM) | relative viability (Quizartinib + Vorinostat; first compound 0.001 µM) | relative viability (Quizartinib + Decitabine; first compound 0.001 µM)
1 | NCI-H460 | 0.734 | 0.687 | 0.566 | 0.433 | 0.498 | 0.436 | 0.452 | 0.454 | 0.613 | 0.459 | 0.906 | 1.1 | 1.05 | 0.452 |  |  |  | 
2 | NCI-H520 | 0.607 | 0.768 | 0.573 | 0.858 | 1 | 0.853 | 0.871 | 0.449 | 0.501 | 0.462 | 0.801 | 0.733 | 1.16 | 1.02 | 0.61 | 0.542 |  | 
3 | NCI-H596 | 0.775 | 0.61 | 0.6 |  | 0.514 | 0.499 | 0.49 | 0.938 | 1.09 | 0.901 |  | 1.11 | 1.09 | 1.06 | 0.686 | 0.993 | 0.565 | 1.03
4 | NCI-H647 | 0.494 | 0.655 | 0.998 | 0.989 | 1.11 | 1.09 | 0.901 | 0.369 | 0.437 | 0.549 | 1.13 | 1.08 | 0.799 | 0.405 | 0.688 | 0.405 | 0.567 | 0.32
5 | NCI-H650 | 0.445 | 0.416 | 0.54 | 1.14 | 1.07 | 1.15 | 0.992 | 0.286 | 0.342 | 0.384 | 0.84 | 0.929 | 0.785 | 0.707 | 0.456 | 0.365 | 0.464 | 0.319
6 | NCI-H661 | 0.812 | 0.87 | 0.888 | 0.637 | 0.657 | 0.862 | 0.59 | 0.5 | 0.577 | 0.599 | 0.522 | 0.575 | 0.575 | 0.421 | 0.807 | 0.561 | 0.724 | 0.55
7 | NCI-H727 | 1.13 | 1.18 | 1.42 | 0.499 | 0.495 | 0.586 | 0.575 | 0.829 | 0.933 | 1.29 | 0.614 | 0.704 | 1.01 | 0.953 | 1.27 | 0.831 | 1.16 | 0.781
8 | NCI-H838 | 0.662 | 0.794 | 0.683 | 0.971 | 0.991 | 1.05 | 0.316 | 0.48 | 0.478 | 0.388 | 0.92 | 1.01 | 1.03 | 0.353 | 0.707 | 0.466 | 0.68 | 0.418
9 | NCI-H1355 | 0.607 | 0.627 | 0.647 | 0.846 | 0.869 | 0.932 | 0.963 | 0.349 | 0.338 | 0.36 | 0.934 | 1.04 | 0.996 | 1.02 | 0.647 | 0.331 | 0.631 | 0.346
10 | NCI-H1395 | 1.09 | 0.695 | 0.858 | 1.13 | 1.24 | 1.14 | 1.12 | 0.74 | 0.728 | 0.774 | 1.06 | 1.05 | 1.25 | 1.13 | 0.623 | 0.718 | 0.685 | 0.718
11 | NCI-H1437 | 0.81 | 0.78 | 0.591 | 0.958 | 1.03 | 0.993 | 0.835 | 0.54 | 0.567 | 0.499 | 0.72 | 0.784 | 0.767 | 0.708 | 0.758 | 0.536 | 0.606 | 0.402
12 | NCI-H1651 | 0.64 | 0.551 | 0.612 | 0.979 | 0.904 | 0.925 | 0.694 | 0.642 | 0.667 | 0.626 | 0.869 | 0.861 | 0.726 | 0.601 | 0.527 | 0.612 | 0.535 | 0.626
13 | NCI-H1666 | 0.974 | 1.16 | 1.07 | 0.822 |  | 1.11 | 0.844 | 0.723 | 0.777 | 0.783 | 0.629 |  | 0.77 | 0.562 | 0.893 | 0.717 | 1.06 | 0.649
14 | NCI-H1734 | 0.802 | 0.796 | 0.854 | 0.63 | 0.658 | 0.697 | 0.776 | 0.459 | 0.656 | 0.485 | 1.09 | 1.08 | 1.13 | 0.969 | 0.746 | 0.499 | 0.748 | 0.504
15 | NCI-H1755 | 0.69 | 0.796 | 0.717 | 0.892 | 0.926 | 0.973 | 1.02 | 0.676 | 0.71 | 0.734 | 1.04 | 1.03 | 1.01 | 1.04 | 0.946 | 0.722 | 0.723 | 0.59
